The supplement of paper PMC10307832

Compound: CN1CCN(CC1)C2=CC(=C(C=C2)NC3=NC=C4C(=N3)N(C5=CC=CC=C5C(=O)N4C)C)OC [XMD8-85] + Cc1nc(NC(=O)N2CCC[C@H]2C(N)=O)sc1-c1ccnc(C(C)(C)C(F)(F)F)c1 [Alpelisib] (partner 2 µM)
Assay: relative viability (nuclei count vs DMSO), 5 days (fraction); higher = more cells survive
Conditions: first compound 0.08 µM
Outline: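 Nuclei were stained with Hoechst during a one-step fixation (final 0.05% Triton X-100, 1% formaldehyde, 1 ug/ml Hoechst) carried out 5 days after dosing, then counted on 4× images. The cells, lung cancer lines in 1536-well plates, had been dosed by pin tool the day after seeding with one drug alone or a fixed anchor-drug dose plus five library-drug doses (not always all listed) in √10 steps. Relative viability is the nuclei count in treated wells divided by that in vehicle wells, and each value is the median of duplicate plates.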

Cell Line	relative viability
LK-2	1.16
LOU-NH91	0.681
LU99A	0.383
LXF-289	1.02
NCI-H23	0.608
NCI-H322M	0.77
NCI-H358	0.957
NCI-H441	0.837
NCI-H460	0.447
NCI-H520	0.891
NCI-H647	0.837
NCI-H650	1.09
NCI-H727	0.759
NCI-H838	0.983
NCI-H1355	0.844
NCI-H1395	0.927

Cell Line	relative viability
NCI-H1437	0.914
NCI-H1651	0.948
NCI-H1666	1.01
NCI-H1734	0.652
NCI-H1755	0.981
NCI-H1793	0.914
NCI-H1915	1.08
NCI-H1944	0.815
NCI-H1975	0.578
NCI-H1993	0.707
NCI-H2009	1.17
NCI-H2023	0.488
NCI-H2085	0.966
NCI-H2087	1.18
NCI-H2126	0.628

Same assay, conditions: first compound 0.253 µM

Cell Line	relative viability
LK-2	1.04
LOU-NH91	0.758
LU99A	0.531
LXF-289	0.964
NCI-H23	0.824
NCI-H358	0.856
NCI-H441	1.03
NCI-H460	0.442
NCI-H520	0.918
NCI-H596	0.558
NCI-H647	1.18
NCI-H650	0.928
NCI-H661	0.596
NCI-H727	0.541
NCI-H838	1.03
NCI-H1355	0.89

Cell Line	relative viability
NCI-H1395	0.907
NCI-H1437	0.992
NCI-H1651	0.951
NCI-H1666	0.829
NCI-H1734	0.678
NCI-H1755	0.949
NCI-H1793	0.769
NCI-H1915	1.09
NCI-H1944	0.791
NCI-H1975	0.649
NCI-H2009	1.03
NCI-H2023	0.623
NCI-H2085	0.917
NCI-H2087	1.05
NCI-H2126	0.767

Same assay, conditions: first compound 0.8 µM

Cell Line	relative viability
LK-2	1.12
LOU-NH91	0.726
LU99A	0.544
LXF-289	1.01
NCI-H23	0.741
NCI-H322M	0.819
NCI-H358	1.11
NCI-H441	0.693
NCI-H460	0.688
NCI-H520	0.866
NCI-H596	0.511
NCI-H647	1.22
NCI-H650	1.17
NCI-H661	0.551
NCI-H727	0.546
NCI-H838	1.09
NCI-H1355	0.807

Cell Line	relative viability
NCI-H1395	0.933
NCI-H1437	1.07
NCI-H1651	1.04
NCI-H1666	0.9
NCI-H1734	0.745
NCI-H1755	0.954
NCI-H1793	0.666
NCI-H1915	1.07
NCI-H1944	0.847
NCI-H1975	0.656
NCI-H1993	0.78
NCI-H2009	1.14
NCI-H2023	0.66
NCI-H2085	1.01
NCI-H2087	1.21
NCI-H2126	0.814

Same assay, conditions: first compound 2.53 µM

Cell Line	relative viability
LK-2	1.26
LOU-NH91	0.711
LU99A	0.61
LXF-289	1.08
NCI-H23	0.64
NCI-H322M	0.784
NCI-H358	0.854
NCI-H441	0.714
NCI-H460	0.401
NCI-H520	0.854
NCI-H596	0.411
NCI-H647	1.35
NCI-H650	0.979
NCI-H661	0.819
NCI-H727	0.534
NCI-H838	1.01
NCI-H1355	0.731

Cell Line	relative viability
NCI-H1395	0.965
NCI-H1437	0.753
NCI-H1651	0.954
NCI-H1666	1.05
NCI-H1734	0.658
NCI-H1755	1.04
NCI-H1793	0.851
NCI-H1915	1.05
NCI-H1944	0.977
NCI-H1975	0.727
NCI-H1993	0.561
NCI-H2009	1.03
NCI-H2023	0.664
NCI-H2085	0.852
NCI-H2087	1.35
NCI-H2126	0.776

Same assay, conditions: first compound 8 µM

Cell Line	relative viability
LK-2	0.694
LOU-NH91	0.616
LU99A	0.431
LXF-289	0.939
NCI-H23	0.391
NCI-H322M	0.782
NCI-H358	0.584
NCI-H441	0.698
NCI-H460	0.147
NCI-H520	0.515
NCI-H596	0.403
NCI-H647	0.734
NCI-H650	0.592
NCI-H661	0.552
NCI-H727	0.304
NCI-H838	0.446
NCI-H1395	1.08
NCI-H1437	0.515
NCI-H1651	0.548
NCI-H1666	0.74
NCI-H1734	0.576
NCI-H1755	0.896
NCI-H1793	0.668
NCI-H1915	0.962
NCI-H1944	0.746
NCI-H1975	0.372
NCI-H1993	0.656
NCI-H2009	0.586
NCI-H2023	0.334
